A short description of series [1]: Rat brain homogenate binding, equilibrium dialysis (RED). It is filed as in vitro ADME. The note with it: two runs; brain homogenate 1 brain /3 buffer, drug 5 µM; 5 µM. On the procedure: Brain and plasma drug binding were performed by equilibrium dialysis using the Rapid Equilibrium Dialysis (RED) device. Briefly, 300 µL of plasma or brain homogenate (1 brain /3 buffer) containing drug (5 µM) was equilibrated (4-18 h) against 500 µL of buffered saline. After incubation, the concentration of drug in plasma/brain homogenate and buffer was determined by LC-MS/MS.
Two runs of rat brain homogenate binding with I-1 compared to Comparison-1. I-1 is approximately 10-fold more free in rat brain than Comparison-1.

A further series relates to TLR4-induced IL-23. The series can be described thus: LPS induced IL23p19 in THP-1 cells (IFNγ primed), IL-23p19 sandwich ELISA. It is filed as cell-based, human. The following applies: THP-1 cells primed with IFNγ, 1 µg/mL LPS, 18 hours; read-out: IL23-p19 ELISA, THP1-IFNy, LPS, 10pt EC50. The text has this: LPS induced IL23p19 in THP-1 cells (with IFNy primed) Assay
THP-1 Cells (ATCC, Cat# TIB-202), Dimethyl Sulfoxide (DMSO) (Sigma-Aldrich, Cat# D2650), RPMI 1640 (Cellgro, Cat# 10-040-CM), Fetal Bovine Serum (Sigma, Cat# F4135), Albumin From Bovine Serum (BSA) (Sigma-Aldrich, Cat#A7906), LPS (Serotype K-235, Sigma, Product Number L 2143), IFNγ (Peprotech, Cat# 300-02), Capture antibody: Human IL-23p19 ELISA (e-Bioscience, Cat. # 14-7238-85), Detection antibody: Primary Mouse Biotinylated anti-human IL-12(p40/p70) (e-Bioscience, Cat. # 13-7129-85), Secondary HRP-conjugated Streptavidin (R&D Systems, Cat#DY998), 1x PBST Washing Buffer (PBS-Tween tablet) (VWR International, Cat#80058-558), ELISA Blocking Buffer (PBS with 1% BSA), ELISA Dilution Buffer (PBS with 1% BSA), 384 Well Flat-Bottom, MaxiSorp Black Immuno Plates (Thermo Scientific, Cat# 12-565-346), 384 Well Flat-Bottom, White Tissue Culture Plates (Thermo Scientific, Cat# 12-565-343), Super Signal ELISA Pico Chemiluminescent Substrate (Thermo Scientific, Cat#37070), Cell Titer Glo reagent (Promega, Cat#G7573), Positive control, IKK2VI inhibitor (Calbiochem, Cat#401483), AquaMax 4000 plate washer (Molecular Devices), Luminometer, Wallac Victor2 1420 Multilabel Counter.
On day 1, 50K/well THP-1 cells were seeded and primed with IFNγ (50ng/mL) in 384-well plates for about 18 hours in RPMI media with 10%FBS. On day 2, the compound was serially diluted in DMSO from 5 mM in 3-fold dilutions, and then diluted 1:125 in RPMI media with 10%FBS. […] IL-23p19 protein in 70 µL/well of supernatant was measured by sandwich ELISA, and 25 µl/well Cell Titer Glo reagent was added to the remaining cells to measure compound toxicity.
Maxisorp immuno ELISA plates were pre-coated with 25 µL/well of anti-IL-23p19 capture antibody (2.5ug/mL) in PBS overnight at room temperature. […] The plates were read with a luminometer, and the chemiluminescence values were entered into Athena (Rigel) for curve fitting, EC50 calculation, and database storage. […]

We go through three compounds from patent EP4799701A2, “PYRIMID-2-YL-PYRAZOLE COMPOUNDS AS IRAK INHIBITORS” (Rigel Pharmaceuticals, Inc., priority 2022, dated 2023).

The structures appear in SMILES notation. Several values for one entry are separate records, joined by “and”; a condition that tells them apart may be missing. Equal entries are not always repeated. Structures can show the parent of a compound that is named as a salt.

With `CCO[C@H]1CC[C@H](n2cc(NC(=O)c3csc(-c4cn[nH]c4)n3)c(-c3nc(F)ccc3F)n2)CC1` [Comparison-1, reference compound], in series [1], the “rat brain homogenate binding (free drug)” value is 0.102% and 0.114%.

A word on the EC50: it is the midpoint of the concentration-response curve. As for `CCO[C@H]1CC[C@H](n2cc(NC(=O)c3csc(-c4cnn(COP(=O)(O)O)c4)n3)c(-c3ncccn3)n2)CC1` [Compound I-3, sodium (4-(4-((1-((1r,4r)-4-ethoxycyclohexyl)-3-(pyrimidin-2-yl)-1H-pyrazol-4-yl)carbamoyl)thiazol-2-yl)-1H-pyrazol-1-yl)methyl phosphate], in the series with TLR4-induced IL-23, the EC50 was 54.4 nM.

For `CCO[C@H]1CC[C@H](n2cc(NC(=O)c3csc(-c4cn[nH]c4)n3)c(-c3ncccn3)n2)CC1` [Compound I-4, N-(1-((1r,4r)-4-ethoxycyclohexyl)-3-(pyrimidin-2-yl)-1H-pyrazol-4-yl)-2-(1H-pyrazol-4-yl)thiazole-4-carboxamide tartaric acid salt], in the series on TLR4-induced IL-23, the EC50 is 2.5 nM.
